Earlier results on one compound are cited in PMC12169662, “De Novo-Designed APC/C Inhibitors Provide a Rationale for Targeting RING-Type E3 Ubiquitin Ligases” (Journal of Medicinal Chemistry, 2025).

Each structure is given as a SMILES string.

For this data set, the target named is APC/C. The conditions noted are these: determined by the same methodology; ref not given; read-out: K i of apcin; cited from earlier work. The protocol:
To quantify the inhibitory effectiveness of H6, its IC50 was determined. To this end, we performed in vitro APC/C ubiquitination assays in the presence of H6 titrated from 0.01 to 100 μM (Figure S17B). […] To distinguish between competitive and noncompetitive inhibition, we determin ...

Take `Cc1ncc([N+](=O)[O-])n1CCOC(=O)NC(Nc1ncccn1)C(Cl)(Cl)Cl` (stereo not shown) [apcin]: the Ki is 23 µM.
